Results taken from the supplement of paper PMC11562712.
Counter-ions that a name gives are not always drawn.

Assay: first-order primary biodegradation rate constant k (sorption-corrected, fDis-corrected) (d-1); higher = faster biodegradation
Method in brief: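 River water with sieved sediment (50 g wet solid L^–1) from German, Swiss, Spanish and Greek river segments was spiked with 129 compounds at 1 μg L^–1 each. It was shaken in the dark at river water temperature (20.5 ± 3.5 °C) for 10 days. Filtered water-phase subsamples were analysed by UHPLC-Orbitrap-MS/MS. First-order k came from log peak-area regression over three replicates, corrected for azide-sterilised sorption-control dissipation and divided by dissolved fraction; invalid fits excluded.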

[1] = river segment: Germany (DE) H_Contam, incubation temperature 24 °C
[2] = river segment: Germany (DE) T_Contam, incubation temperature 24 °C
[3] = river segment: Germany (DE) T_Pris, incubation temperature 24 °C
[4] = river segment: Greece (EL) A_Contam, incubation temperature 19 °C
[5] = river segment: Greece (EL) G_Pris, incubation temperature 19 °C
[6] = river segment: Greece (EL) L_Contam, incubation temperature 19 °C
[7] = river segment: Spain (ES) B_Contam, incubation temperature 24 °C
[8] = river segment: Spain (ES) C_Contam, incubation temperature 24 °C
[9] = river segment: Spain (ES) L_Contam, incubation temperature 24 °C
[10] = river segment: Switzerland (CH) R_Contam, incubation temperature 17 °C
[11] = river segment: Switzerland (CH) U_Contam, incubation temperature 17 °C
[12] = river segment: Switzerland (CH) U_Pris, incubation temperature 17 °C
[13] = river segment: Switzerland (CH) C_Contam, incubation temperature 17 °C
[14] = river segment: Greece (EL) G_Contam, incubation temperature 19 °C
[15] = river segment: Spain (ES) F_Pris_Salt, incubation temperature 24 °C

Compound	first-order primary biodegradation rate constant k [1]	first-order primary biodegradation rate constant k [2]	first-order primary biodegradation rate constant k [3]	first-order primary biodegradation rate constant k [4]	first-order primary biodegradation rate constant k [5]	first-order primary biodegradation rate constant k [6]	first-order primary biodegradation rate constant k [7]	first-order primary biodegradation rate constant k [8]	first-order primary biodegradation rate constant k [9]	first-order primary biodegradation rate constant k [10]	first-order primary biodegradation rate constant k [11]	first-order primary biodegradation rate constant k [12]	first-order primary biodegradation rate constant k [13]	first-order primary biodegradation rate constant k [14]	first-order primary biodegradation rate constant k [15]
COc1cccc(C2(O)CCCCC2CN(C)C)c1 (stereo not given) [Tramadol]	0.0149	0.058	0.00925	0.0025	0.0141	0.0437	0.00653	0.00694	0.00992	0.00497	0.0131	0.0152			
CCOC(=O)CC(O)(CC(=O)OCC)C(=O)OCC [Triethyl citrate]		0.275	0.0369						0.339	0.0597	0.127	0.0638	0.00672		
COc1cc(Cc2cnc(N)nc2N)cc(OC)c1OC [Trimethoprim]	0.173		0.612	0.431	0.704	1.57	0.192	0.383	0.758	1.65	2.23	2.52	1.11	0.993	0.726
CCOC(=O)C1CC(=O)C(=C(O)C2CC2)C(=O)C1 (stereo not given) [Trinexapac-ethyl]	0.0565	0.461	0.0811	0.435	0.252	0.256	0.337	0.0822	0.373	0.149	0.178	0.195	0.0493	0.0205	
CCCCC(=O)N(Cc1ccc(-c2ccccc2-c2nnn[nH]2)cc1)[C@H](C(=O)O)C(C)C [Valsartan]	0.469	0.54	0.204	0.42	0.275			0.194	0.374	0.52	0.556	0.429	0.186	0.418	0.0324
COc1ccc(C(CN(C)C)C2(O)CCCCC2)cc1 (stereo not given) [Venlafaxine]				1.22		1.2	0.0466		0.0394		0.0953		0.00206	0.204	
Cc1ccc(-c2nc3ccc(C)cn3c2CC(=O)N(C)C)cc1 [Zolpidem]	0.202	0.672	0.0723	0.464	0.19	2.27	0.709	0.0357	0.761	0.0249	0.0604	0.135	0.0346		0.00549
Cc1ccc(S(=O)(=O)O)cc1 [p-Toluenesulfonic acid]	1.06	0.52	0.422	0.369	0.0811	0.27	0.18	0.543	0.55	0.292	0.186	0.12	0.764		0.0548
